Earlier results in patent publication EP0513922B1, “Coating for foods and agricultural products to prevent the growth of moulds” (GIST-BROCADES N.V., priority 1991, dated 1992).

Assays:
[1] = in aqueous systems, depending of the presence of other substances
[2] = tested on: fungus growth; conditions: to be effective against fungus growth

- solubility of natamycin [1]: 30 - 50 ppm
SMILES: C[C@@H]1C/C=C/C=C/C=C/C=C/[C@H](O[C@@H]2O[C@H](C)[C@@H](O)[C@H](N)[C@@H]2O)C[C@@H]2O[C@](O)(C[C@@H](O)C[C@H]3O[C@@H]3/C=C/C(=O)O1)C[C@H](O)[C@H]2C(=O)O [natamycin]
- minimal inhibitory concentration [2]: less than 10 ppm
